Data as given in patent publication US20240261243A1, “NITRIC OXIDE DONORS, COMPOSITIONS, AND METHODS OF USE” (priority 2020, published 2024).

System: P. aeruginosa (PAK)
Assay: Time-kill assay in CAMHB at 37° C.
Format: cell-based, Pseudomonas aeruginosa
Conditions: 4 mg/ml BIOC76 alone, broth
Procedure: In this study, we established the viability of P. aeruginosa in a broth at 37° C. when exposed to BIOC76 alone compared to BIOC76+gallium citrate. […] To conduct this experiment, we suspended P. aeruginosa (PAK) in CAMHB to a final concentration of 10^6 CFU/ml. Bacteria were exposed to BIOC76, GaCi, or BIOC76+GaCi and incubated at 37° C.

O=NN(O)N(CCO)CC1OC2OC3C(CN(CCO)N(O)N=O)OC(OC4C(CN(CCO)N(O)N=O)OC(OC5C(CN(CCO)N(O)N=O)OC(OC6C(CN(CCO)N(O)N=O)OC(OC7C(CN(CCO)N(O)N=O)OC(OC8C(CN(CCO)N(O)N=O)OC(OC1C(O)C2O)C(O)C8O)C(O)C7O)C(O)C6O)C(O)C5O)C(O)C4O)C(O)C3O (stereo not shown) [BIOC76]
bacterial survival over 24 h: can recover after 24 h
